Several values for one entry are separate records, joined by “and”; a condition that tells them apart may be missing. Equal entries are not always repeated. Where two headings read alike, the source gives them in different places.
Tests used:
unfractionated heparin [1] = test: Reversal of anti-thrombin effects of unfractionated heparin in vitro (thrombin clotting time in plasma); type: biochemical, human; conditions: heparin 0.5 U/ml; thrombin standardized to clotting time 20-22 seconds
Description: Plasma was obtained from normal donors. Thrombin concentration (human alpha thrombin, Enzyme Research Laboratories, South Bend, Ind.) was standardized to produce a clotting time of 20-22 seconds. Heparin was added at 0.5 IU anti-thrombin activity/ml. The clotting time for heparin alone was approximately 3 minutes. To test the effects of the peptides in this system, one minute after addition of heparin to the plasma, the peptides were added in concentrations ranging from 1-200 μg/ml. After one minute, thrombin was added and the clotting time determined. The effects of the peptides were concentration dependent. The clotting time was restored to normal values in all samples at the dosages shown below in Table III. The ability of the peptides to neutralize heparin inhibition of thrombin clotting time was consistent with the binding affinities shown in Table I, and with the effectiveness against low molecular weight heparin anti-Factor Xa activity in Table II.

Lovenox = test: Reversal of anti-Factor Xa activity in vitro (Stachrom Heparin chromogenic assay), Lovenox; type: biochemical, human; conditions: for Percent Reversal of anti-Factor Xa Activity, Lovenox: 0.5 U/ml anti-Factor Xa activity
Description: (§1) Solutions of Lovenox, Orgaran, or unfractionated heparin (Sigma) were prepared in 0.32% sodium citrate or in normal human plasma to contain 0.5 U/ml anti-FXa activity. Calibrations were made against the standards provided by the Stachrom Heparin (Diagnostica Stago) assay kit. The heparin/ATIII complex was allowed to form at 37° C. for 2 minutes, peptide was added, the mixture was incubated for an additional 1-5 minutes, and then Factor Xa was added, and finally the color reagent, for one minute, and the absorbance was read at 405 nm. The increase in absorbance from the heparinized control to the test sample was divided by the difference in A405 between the heparinized control and the control without heparin to obtain the % reversal.

Orgaran = test: Reversal of anti-Factor Xa activity in vitro (Stachrom Heparin chromogenic assay), Orgaran; type: biochemical, human; conditions: for Percent Reversal of anti-Factor Xa Activity, Orgaran: 0.5 U/ml anti-Factor Xa activity
Description: as §1

unfractionated heparin [2] = test: Reversal of anti-Factor Xa activity in vitro (Stachrom Heparin chromogenic assay), unfractionated heparin; type: biochemical, human; conditions: for Percent Reversal of anti-Factor Xa Activity, Heparin (unfractionated): 0.5 U/ml anti-Factor Xa activity
Description: as §1

HUVEC PGs = test: ACE of HUVEC PGs/GAGs through peptide; type: binding, human
Description: (§2) Briefly, peptides were dissolved in 1×ACE running buffer, 50 mM sodium 3-(N-morpholino)-2-hydroxypropanesulfonate (MOPSO, Sigma)/125 mM sodium acetate, pH 7.0, and serially diluted in running buffer at 2× concentrations. Peptides were then mixed 1:1 with 2% agarose/1% CHAPS, 3-[(3-cholamidopropyl)dimethylammonio]-1-propanesulfonate, (Boehringer Mannheim, Indianapolis, Ind.), and loaded into wells of a 1% agarose gel. Radiolabeled heparin or HUVEC PGs were then loaded in a slot on the […] side of the gel, and electrophoresed through the peptide-containing wells, towards the cathode. Gels were dried and PG mobility was measured with a Phosphorimager (Molecular Dynamics, Sunnyvale, Calif.) by scanning each protein lane and determining the relative radioactivity content per. 88-μm pixel through the length of the lane. Retardation coefficient (R) measurements, binding isotherm curve fittings, and apparent Kd value determinations were calculated as detailed previously (Lee, M. K., and A. D. Lander, Proc Nat Acad Sci USA, 88:2768-2772, 1991; San Antonio, J. D., et al, Biochem, 32:47464755, 1993).
Binding analysis of peptides to enzymatically or chemically degraded PGs (see below) was carried out by ACE as detailed, except that PG samples included 6 M urea to denature any residual enzymes.
Cell Culture—HUVEC were isolated as detailed elsewhere (Gimbrone, M. A., In Progress in Hematology and Thrombosis. Vol. III. B. S. Collen, editor. W B Saunders, Philadelphia. 1-28, 1976) and were used up to passage seven. Cells were cultured on 0.2% gelatin-coated tissue culture flasks in normal culture media composed of medium 199 (Gibco BRL, Gaithersburg, Md.), 10% fetal bovine serum (FBS, Mediatech Inc.), 80 μg/ml endothelial cell growth supplement isolated from bovine hypothalami as described (Maciag, T., et al., Proc Nat Acad Sci USA, 76 (11):5674-5678, 1979), 50 μg/ml heparin (porcine intestinal mucosa, grade 1A, Sigma) 1% penicillin-streptomycin, and 0.1% fungizone.
Radiolabeling and Isolation of Total HUVEC PGs and GAGs—Exponentially growing, subconfluent HUVEC were labeled with 35μCi/ml ^35S-Na2SO4 (ICN Pharmaceuticals, Costa Mesa, Calif.) in normal culture media minus heparin for 12 h. Culture media and cell layers were harvested separately. After removal of the media, cells were washed with 2.0 ml PBS plus Ca^2+-Mg^2′. Media and rinses were pooled and brought to 6 M urea, 10 mM EDTA, 1 mM phenymethylsulfonyl fluoride (PMSF), 5 mM N-ethylmaleimide (NEM), 50 mM 6-aminocaproic acid, 5 mM benzamidine, and 1 μg/ml pepstatin A. Samples were stirred for 15 min at room temperature, then centrifuged at 10,000 rpm for 30 min to remove insoluble materials.
To the cell layer was added 2.0 ml of extraction solution, 6M urea, 100 mM NaCl, 0.2% Triton X-100, 50 mM Tris-HCl, pH 7.0, and protease inhibitors as described above. Cells were scraped off the dishes, and the extracts were pooled and stirred for 5 min at room temperature, and then centrifuged as described above.
Samples were concentrated on DEAE columns (DEAE Bio-Gel A Agarose, Bio-Rad Laboratories) equilibrated with low salt buffer, 0.1 M NaCl, 6 M urea, and 50 mM Tris-HCl, pH 7.0. Columns were rinsed with 10 ml of low salt buffer; flow through was discarded. Bound PGs/GAGs were eluted with 3 ml of high salt buffer, 1.5 M NaCl, 6 M urea, and 50 mM Tris-HCl, pH 7.0. Eluted samples were dialyzed against distilled water, lyophilized and stored at −20° C. until binding analysis.
Enzymatic Digestions of PGs—The contributions of PG GAG chain components to peptide binding affinities were assessed by selective enzymatic degradation of GAG chains prior to ACE analysis. ^35S-Na2SO4 labeled HUVEC PGs were digested with chondroitinase ABC, or heparatinase I (Seikagaku America, Ijamsville, Md.). […]

[3] = Affinity coelectrophoresis (ACE) of radiolabeled heparin through peptides; type: binding, pig; conditions: for heparin-binding affinity in words: ACE, low Mr heparin
From the text: Preparation of Radiolabeled Heparin—Whole heparin from pig intestinal mucosa (Sigma) was tyramine end-labeled and radiolabeled with Na^125I (Amersham, Pharmacia Biotech, Inc., Piscataway, N.J.) to an average specific activity ≅1.0×10^7 CPM/μg as described^59. Radiolabeled heparin was fractionated on Sephadex G-100 (Bio-Rad Laboratories, Hercules, Calif.) and the final ≅12% of material to elute was retained as the low Mr material of ≦6,000 (Jordan, R., D. Beeler, and R. Rosenberg, J Biol Chem, 254:2902-2913, 1979; Laurent, T. C., et al., Biochem J, 175:691-701, 1978).
as §2
Some peptides were also analyzed by ACE for heparin-binding under reducing conditions. Thus, after serial peptide dilution, β-mercaptoethanol (β-ME) was added at 5% to each peptide sample, and these were mixed 1:1 with 2% agarose/1% CHAPS/5% β-ME, and added to the ACE gel sample wells as usual.

Substance | μg peptide/ml heparinized plasma needed to normalize thrombin time (unfractionated heparin [1]) | Percent Reversal of anti-Factor Xa Activity, Lovenox (Lovenox; peptide 0.6 mg/ml in plasma) [%] | Percent Reversal of anti-Factor Xa Activity, Orgaran (Orgaran; peptide 0.6 mg/ml in plasma) [%] | Percent Reversal of anti-Factor Xa Activity, Heparin (unfractionated) (unfractionated heparin [2]; peptide 0.6 mg/ml in plasma) [%] | heparin-binding affinity in words [3] | further results
(AKAAKKRA)3 (AKAAKKRAAKAAKKRAAKAAKKRA; protein fragment) [XBBBXXBX tandem repeat peptide, reversed orientation] | >50 μg peptide/ml heparinized plasma | 93.5 | 72.0 | 94.0 |  | 
(ARKKAAKA)4 (ARKKAAKAARKKAAKAARKKAAKAARKKAAKA; protein fragment) [XBBBXXBX tandem repeat peptide] |  | 73 | 70.5 | 87.5 |  | Kd (HUVEC PGs; 35S-labeled secreted/total EC PGs, read-out: Kd for total (secreted) HUVEC PGs): ~300 nM; Kd for HUVEC PGs devoid of CS GAGs via chondroitinase ABC (ABC) digestion (HUVEC PGs; chondroitinase ABC digested PGs): comparable affinity; Kd (HUVEC PGs; chondroitinase ABC digested PGs, read-out: Kd for HUVEC PGs devoid of CS GAGs via chondroitinase ABC (ABC) digestion): ~300 nM; Kd (HUVEC PGs; free GAG chains of total PGs, read-out: Kd for GAG chains liberated from core protein by borohydride reduction (BH)): ~1200 nM; reduction in affinity after borohydride release of GAG chains (HUVEC PGs; free GAG chains versus intact PGs): 3 fold and 3-4 fold; Kd for HUVEC PGs devoid of HS GAGs via heparatinase I digestion (H) (HUVEC PGs; heparatinase I digested PGs): comparable affinity; Kd (HUVEC PGs; heparatinase I digested PGs, read-out: Kd for HUVEC PGs devoid of HS GAGs via heparatinase I digestion (H)): ~300 nM; Kd for HUVEC PGs devoid of HS GAGs via nitrous acid treatment (NA) (HUVEC PGs; nitrous acid degraded PGs): comparable affinity; Kd (HUVEC PGs; nitrous acid degraded PGs, read-out: Kd for HUVEC PGs devoid of HS GAGs via nitrous acid treatment (NA)): ~300 nM
(ARKKAAKA)5 (ARKKAAKAARKKAAKAARKKAAKAARKKAAKAARKKAAKA; protein fragment) [XBBBXXBX tandem repeat peptide] | 21 μg peptide/ml heparinized plasma | 81.5 | 83.0 | 94.5 |  | Percent Reversal of anti-Factor Xa Activity, Lovenox (Lovenox; peptide 0.12 mg/ml in plasma): 68.5%; Percent Reversal of anti-Factor Xa Activity, Lovenox (Lovenox; peptide 0.4 mg/ml in plasma): 71.0%; Percent Reversal of anti-Factor Xa Activity, Orgaran (Orgaran; peptide 0.12 mg/ml in plasma): 75.0%; Percent Reversal of anti-Factor Xa Activity, Orgaran (Orgaran; peptide 0.4 mg/ml in plasma): 75.0%; Percent Reversal of anti-Factor Xa Activity, Heparin (unfractionated) (unfractionated heparin [2]; peptide 0.12 mg/ml in plasma): 64.5%; Percent Reversal of anti-Factor Xa Activity, Heparin (unfractionated) (unfractionated heparin [2]; peptide 0.4 mg/ml in plasma): 93.0%
(ARKKPAKA)3 (ARKKPAKAARKKPAKAARKKPAKA; protein fragment) [proline in each tandem repeat in place of an alanine] |  | 100 | 66.5 | 99.0 |  | Percent Reversal of anti-Factor Xa Activity, Lovenox (Lovenox; peptide 0.12 mg/ml in plasma): 62.0%; Percent Reversal of anti-Factor Xa Activity, Lovenox (Lovenox; peptide 0.4 mg/ml in plasma): 62.5%; Percent Reversal of anti-Factor Xa Activity, Orgaran (Orgaran; peptide 0.12 mg/ml in plasma): 45.0%; Percent Reversal of anti-Factor Xa Activity, Orgaran (Orgaran; peptide 0.4 mg/ml in plasma): 67.5%; Percent Reversal of anti-Factor Xa Activity, Heparin (unfractionated) (unfractionated heparin [2]; peptide 0.12 mg/ml in plasma): 90.0%; Percent Reversal of anti-Factor Xa Activity, Heparin (unfractionated) (unfractionated heparin [2]; peptide 0.4 mg/ml in plasma): 50.0%
(ARRRAARA)3 [XBBBXXBX tandem repeat peptide] |  | 67.5 | 67.0 | 57.5 |  | 
AAARRARAAAARAKA |  |  |  |  |  | decrease in heparin-binding affinity versus native mouse SG peptide ([3]; modified sequence versus YPARRARYQWVRCKP): 350 fold
AKKARA |  |  |  |  | do not bind heparin with a measurable affinity | 
AKKARAAKKARA [(AKKARA)2, XBBXBX tandem repeat peptide] | >50 μg peptide/ml heparinized plasma | 61.5 | 37.0 | 67.0 | weak | 
AKKARAAKKARAAKKARAAKKARA [(AKKARA)4, XBBXBX tandem repeat peptide] | 10 μg peptide/ml heparinized plasma | 73 | 75 | 99 | moderate | 
AKKARAAKKARAAKKARAAKKARAAKKARA [(AKKARA)5, XBBXBX tandem repeat peptide] |  |  |  |  | strong | 
ARKKAAKA |  |  |  |  | do not bind heparin with a measurable affinity | 
ARKKAAKAARKKPAKAARKKAAKA |  | 83.0 | 67.0 | 57.5 |  | 
YPARRARYQWVRAKP [murine serglycin, cysteine replaced with alanine] |  | 0 | 2.0 | 25.0 | negligible | 
YPTQRARYQWVRCNP | 100 μg peptide/ml heparinized plasma | 0 | 5 | 90 |  | effectiveness against Lovenox / low molecular weight heparin in vitro, in words (Lovenox; text summary of Table II): not against Lovenox; effectiveness against Orgaran in vitro, in words (Orgaran; text summary of Table II): highly effective; effectiveness against UFH / heparin in vitro, in words (unfractionated heparin [2]; text summary of Table II): highly effective
